Where two headings read alike, the source gives them in different places.
Experiments:
Human JNK1α1 = Human JNK1α1 (Homo sapiens, UniProt P45983); experiment: JNK assay in vitro (phosphorylation of GST-ATF2 with [γ-33P]ATP), JNK1; type: biochemical
Method: (§1) JNK activity was measured by phosphorylation of GST-ATF2 (19-96) with [γ-^33P] ATP. […] Human JNK2α2 assay contains 1 nM enzyme, 1 μM ATF2, 8 μM ATP with 1 μCi [γ-^33P] ATP. Human JNK1α1 assay contains 2 nM enzyme, 1 μM ATF2, 6 μM ATP with 1 μCi [γ-^33P] ATP. Human JNK3 (Upstate Biotech #14-501M) assay contains 2 nM enzyme, 1 μM ATF2, 4 μM ATP with 1 μCi [γ-33P] ATP. The enzyme assay was carried out in the presence or absence of several compound concentrations. JNK and compound were pre-incubated for 10 min., followed by initiation of the enzymatic reaction by adding ATP and the substrate. The reaction mixture was incubated at 30° C. for 30 min. At the end of incubation, the reaction was terminated by transferring 25 μl of the reaction mixture to 150 μl of 10% glutathione Sepharose® slurry (Amersham # 27-4574-01) containing 135 mM EDTA. The reaction product was captured on the affinity resin, and washed on a filtration plate (Millipore, MABVNOB50) with phosphate buffered saline for six times to remove free radionucleotide. The incorporation of ^33P into ATF2 was quantified on a microplate scintillation counter (Packard Topcount). Compound inhibition potency on JNK was measured by IC50 value generated from ten concentration inhibition curves fitted into the 3-parameter model: % inhibition=Maximum/(I+(IC50/[Inhibitor])^slope). Data were analyzed on Microsoft Excel for parameter estimation.

Human JNK2α2 = Human JNK2α2 (Homo sapiens, UniProt P45984); experiment: JNK assay in vitro (phosphorylation of GST-ATF2 with [γ-33P]ATP), JNK2; type: biochemical
Method: as §1

c-jun = c-jun of Table 2 (method not described); type: cell-based
[1] = test system: TNFα-induced IL-6 production; experiment: Rat in vivo TNFα-induced IL-6 production assay; settings: 1.5 h, oral gavage, 30 min before TNF-α i.p., blood 90 min after challenge
Method: Female Wistar-Han rats procured from Charles River Laboratories were allowed to acclimate for one week prior to use and achieve an approximate body weight of 95-130 g. Rats were administered test compound via oral gavage 30 min prior to an intraperitoneal challenge of 0.5 μg recombinant rat TNF-α (Biosource). Blood was collected via cardiocentesis 90 min after TNF-α challenge. Plasma was prepared using lithium heparin separation tubes (BD microtainer) and frozen at −80° C. until analyzed. IL-6 levels were determined using a rat specific IL-6 ELISA kit (Biosource).

[2] = test system: inflammatory cell infiltration into BAL; experiment: Ovalbumin-sensitized asthma model (inflammatory cell infiltration into BAL); type: in vivo, rat; settings: 10 mg/kg
Method: (A) Male Brown-Norway rats are sensitized i.p. with 100 μg of OA (ovalbumin) in 0.2 ml alum once every week for three weeks (day 0, 7, and 14). The week following the last sensitization, the rats are ready for testing. One to 2 days prior to challenge, animals are weighed. On day 21, the rats are dosed q.d. with either vehicle or compound formulation subcutaneously 30 minutes before OA aerosol challenge (1% OA for 45 minutes) and terminated 4 or 24 hours after challenge. At time of sacrifice, rats are anesthetized (urethane, approx. 2 g/kg, i.p.). Plasma is collected from rats for PK at termination. Blood is drawn from the abdominal aorta at termination. A tracheal cannula is inserted and the lungs are lavaged with 3×3 ml PBS. The BAL fluid is analyzed for total leukocyte number and differential leukocyte counts. Total leukocyte number in an aliquot of the cells (20-100 μl) is determined using a Coulter Counter. For differential leukocyte counts, 50-200 μl of the sample is centrifuged in a Cytospin and the slide stained with Diff-Quik. The proportions of monocytes, eosinophils, neutrophils and lymphocytes are counted under light microscopy using standard morphological criteria and expressed as a percentage. The remaining BAL fluid is centrifuged (1500 rpm, 10 min) and the supernatant is stored at −80° C. Lungs are also harvested for protein and/or RNA analyses.

Sequence of Human JNK1α1 (P45983 1-384 isoform P45983-2): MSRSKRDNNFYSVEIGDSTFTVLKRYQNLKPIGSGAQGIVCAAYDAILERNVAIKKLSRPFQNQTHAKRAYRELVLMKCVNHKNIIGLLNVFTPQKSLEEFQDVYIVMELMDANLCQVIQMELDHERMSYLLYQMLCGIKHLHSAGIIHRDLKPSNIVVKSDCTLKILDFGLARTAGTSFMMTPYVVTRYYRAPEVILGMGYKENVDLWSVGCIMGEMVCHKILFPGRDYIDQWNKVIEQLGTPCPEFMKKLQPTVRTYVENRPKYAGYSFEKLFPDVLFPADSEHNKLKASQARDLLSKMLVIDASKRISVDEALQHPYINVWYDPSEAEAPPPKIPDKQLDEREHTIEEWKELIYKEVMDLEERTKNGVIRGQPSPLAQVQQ
Sequence of Human JNK2α2 (P45984 whole entry): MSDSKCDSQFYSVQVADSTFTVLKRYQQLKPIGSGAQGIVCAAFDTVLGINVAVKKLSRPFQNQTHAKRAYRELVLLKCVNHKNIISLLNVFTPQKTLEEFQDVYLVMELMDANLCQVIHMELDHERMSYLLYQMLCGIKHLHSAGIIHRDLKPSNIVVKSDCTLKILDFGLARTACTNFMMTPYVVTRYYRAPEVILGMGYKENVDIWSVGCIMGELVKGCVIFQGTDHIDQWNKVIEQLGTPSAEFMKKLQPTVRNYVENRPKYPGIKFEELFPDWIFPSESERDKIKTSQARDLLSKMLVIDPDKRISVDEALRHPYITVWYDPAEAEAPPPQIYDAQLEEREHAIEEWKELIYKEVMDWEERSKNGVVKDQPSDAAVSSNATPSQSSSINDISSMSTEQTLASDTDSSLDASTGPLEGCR

For `CCC(CO)NC(=O)[C@H]1CC[C@H](Nc2nccc(-n3ncc4ccccc43)n2)CC1` (stereo partly shown) [Compound 15], which IC50 (Human JNK1α1) is on record?
Its IC50 is 67.8 nM.

What about the IC50 (Human JNK2α2) of the same compound?
The IC50 was 458 nM.

What about the IC50 (c-jun) of the same compound?
The IC50 was 1290 nM.

For `O=C(NCC(O)CO)[C@H]1CC[C@H](Nc2nccc(-n3ncc4ccccc43)n2)CC1` (stereo partly shown) [Compound 16], which IC50 (Human JNK1α1) is on record?
The IC50 was 70.8 nM.

And the inhibition in vivo at 30 mg/kg [1]?
The inhibition in vivo at 30 mg/kg was 47.4%.

And the IC50 (Human JNK2α2)?
The IC50 was 592 nM.

And the IC50 (c-jun)?
The IC50 was 4130 nM.

What does the source list for `CC(C)(O)c1cccc2c1ccn2-c1ccnc(N[C@H]2CC[C@H](O)CC2)n1` [Compound 18, 4-[4-(4-(2-hydroxyprop-2-yl)-indol-1-yl)-pyrimidin-2-ylamino]-cyclohexanol]?
IC50 (Human JNK1α1): 73.5 nM; IC50 (Human JNK2α2): 337 nM; IC50 (c-jun): 1950 nM

For `O=C(NC(CO)CO)[C@H]1CC[C@H](Nc2nccc(-n3ncc4ccccc43)n2)CC1` [Compound 26, 4-(4-indazol-1-yl-pyrimidin-2-ylamino)-cyclohexane carboxylic acid 1,3-dihydroxyprop-2-ylamide], which IC50 (Human JNK1α1) is on record?
The IC50 was 85 nM.

And the inhibition in vivo at 30 mg/kg [1]?
Its inhibition in vivo at 30 mg/kg is 59.6%.

And the IC50 (Human JNK2α2)?
The IC50 was 695 nM.

And the IC50 (c-jun)?
Its IC50 is 1890 nM.

With `COc1cccc2c1cnn2-c1ccnc(N[C@H]2CC[C@H](O)CC2)n1` [Compound 86, 4-[4-(4-methoxyindazol-1-yl)-pyrimidin-2-yl-amino]-cyclohexanol] as the compound, how does the IC50 (Human JNK1α1; Km concentrations of ATP and substrate, 6 μM ATP, 1 μM ATF2) read?
The IC50 was 22.8 nM.

What about the IC50 (Human JNK2α2; Km concentrations of ATP and substrate, 8 μM ATP, 1 μM ATF2) of the same compound?
The IC50 was 178 nM.

What does the source list for `CC(C)C(=O)Nc1cccc2c1ccn2-c1ccnc(N[C@H]2CC[C@H](O)CC2)n1` [Compound 88, N-(1-[2-(4-hydroxy-cyclohexylamino)-pyrimidin-4-yl]-1H-indol-4-yl)-isobutyr-amide]?
IC50 (Human JNK1α1): 70.9 nM; IC50 (Human JNK2α2): 480 nM; melting point: 211.8 to 212.6 °C

What does the source list for `CS(=O)(=O)CCCOc1cccc2c1cnn2-c1ccnc(N[C@H]2CC[C@H](NC(=O)CN3CCOCC3)CC2)n1` [Compound 159, N-(4-{4-[4-(3-methane-sulfonyl-propoxy)-indazol-1-yl]-pyrimidin-2-ylamino}-cyclohexyl)-2-morpholin-4-yl-acetamide]?
inhibition in vivo at 10 mg/kg [1]: 57.6%; melting point: 219.2 to 221.1 °C

With `CC(C)(O)[C@H]1CC[C@H](Nc2nccc(-n3ccc4c(OCCCS(C)(=O)=O)cccc43)n2)CC1` [Compound 166, 2-(4-{4-[4-(3-methanesulfonyl-propoxy)-indol-1-yl]-pyrimidin-2-ylamino}-cyclohexyl)-propan-2-ol] as the compound, how does the inhibition in vivo at 10 mg/kg [1] read?
Its inhibition in vivo at 10 mg/kg is 48.5%.

What about the inhibition in vivo at 20 mg/kg [1] of the same compound?
The inhibition in vivo at 20 mg/kg was 75.2%.

Which inhibition in vivo at 20 mg/kg [1] does the source give for `CS(=O)(=O)CCCOc1cccc2c1ccn2-c1ccnc(N[C@H]2CC[C@H](C(=O)N3CC[C@H](O)C3)CC2)n1` [Compound 224, (3-hydroxy-pyrrolidin-1-yl)-(4-{4-[4-(3-methane-sulfonyl-propoxy)-indol-1-yl]-pyrimidin-2-ylamino}-cyclohexyl)-methanone] here?
Its inhibition in vivo at 20 mg/kg is 68.6%.

Which inhibition in vivo at 20 mg/kg [1] does the source give for `CS(=O)(=O)CCCOc1cccc2c1ccn2-c1ccnc(N[C@H]2CC[C@H](C(=O)N3CC[C@@H](O)C3)CC2)n1` [Compound 225, (3-hydroxy-pyrrolidin-1-yl)-(4-{4-[4-(3-methane-sulfonyl-propoxy)-indol-1-yl]-pyrimidin-2-ylamino}-cyclohexyl)-methanone] here?
Its inhibition in vivo at 20 mg/kg is 50.9%.

Which results are given for `CS(=O)(=O)CCCOc1cccc2c1ccn2-c1ccnc(N[C@H]2CC[C@H](C(=O)N3CCC(N)CC3)CC2)n1.Cl` [Compound 233, (4-amino-piperidin-1-yl)-(4-{4-[4-(3-methane-sulfonyl-propoxy)-indol-1-yl]-pyrimidin-2-ylamino}-cyclohexyl)-methanone]?
inhibition in vivo at 20 mg/kg [1]: 57.8%; melting point: 247 to 248 °C

With `C[C@@H]1C[C@H]2[C@@H]3CCC4=CC(=O)C=C[C@]4(C)[C@@]3(F)[C@@H](O)C[C@]2(C)[C@@]1(O)C(=O)CO` [Dexamethasone, dexamethasone, reference compound] as the compound, how does the Eosinophils % inhibition [2] read?
Its Eosinophils % inhibition is 41.9%.

And the “Eosinophils count in BAL” value [2]?
The value was 0.18 ± 0.11 × 10^5 per mL.

And the Neutrophils % inhibition [2]?
The Neutrophils % inhibition was 97.5%.

What about the “Neutrophils count in BAL” value [2] of the same compound?
The value was 0.04 ± 0.01 × 10^5 per mL.

What about the “Total cells % inhibition” value [2] of the same compound?
Its value is 23.2%.

With `C[C@H]1CC[C@H](Nc2nccc(-n3ncc4c([N+](=O)[O-])cccc43)n2)CC1` [Example 4, trans-(4-Methyl-cyclohexyl)-[4-(4-nitro-indazol-1-yl)-pyrimidin-2-yl]-amine] as the compound, how does the melting point read?
Its melting point is 253.9 to 254.8 °C.

For `CC(O)CCNC(=O)[C@H]1CC[C@H](Nc2nccc(-n3ncc4ccccc43)n2)CC1` (stereo partly drawn) [Example 5, trans-4-(4-Indazol-1-ylpyrimidin-2-ylamino)-cyclohexane-carboxylic acid (3-hydroxy-butyl)-amide], which melting point is on record?
Its melting point is 248.5 to 252.5 °C.

With `O=C([C@H]1CC[C@H](Nc2nccc(-n3ncc4ccccc43)n2)CC1)N1CCOCC1` [Example 6, trans-[4-(4-Indazol-1-yl-pyrimidin-2-ylamino)-cyclohexyl]-morpholin-4-yl-methanone] as the compound, how does the melting point read?
The melting point was 191 to 192 °C.

Which melting point does the source give for `O=C(O)c1cccc2c1ccn2-c1ccnc(N[C@H]2CC[C@H](O)CC2)n1` [Example 7, trans-1-[2-(4-Hydroxy-cyclohexylamino)-pyrimidin-4-yl]-1H-indole-4-carboxylic acid] here?
The melting point was 259 to 261 °C.

For `Nc1cccc2c1ccn2-c1ccnc(N[C@H]2CC[C@H](O)CC2)n1` [Example 8, trans-4-[4-(4-Aminoindol-1-yl)-pyrimidin-2-ylamino]-cyclohexanol], which melting point is on record?
The melting point was 218.9 to 220.1 °C.

For `Oc1ccc2c(ccn2-c2ccnc(N[C@H]3CC[C@H](O)CC3)n2)c1` [Example 9, trans-1-[2-(4-Hydroxycyclohexylamino)-pyrimidin-4-yl]-1H-indol-5-ol], which melting point is on record?
Its melting point is 246.5 to 248 °C.

Which melting point does the source give for `OCc1cccc2c1ccn2-c1ccnc(N[C@H]2CC[C@H](O)CC2)n1` [Example 10, trans-4-[4-(4-Hydroxymethylindol-1-yl)-pyrimidin-2-ylamino]-cyclohexanol] here?
The melting point was 212 to 213.3 °C.

Which melting point does the source give for `CS(=O)(=O)N[C@H]1CC[C@H](Nc2nccc(-n3ncc4ccccc43)n2)CC1` [Example 12, trans-N-[4-(4-Indazol-1-ylpyrimidin-2-ylamino)-cyclohexyl]-methanesulfonamide] here?
The melting point was 269.6 to 270.4 °C.

With `CC1(O)CCC(Nc2nccc(-n3ncc4ccccc43)n2)CC1` (stereo not shown) [Example 13, 4-(4-Indazol-1-ylpyrimidin-2-ylamino)-1-methylcyclohexanol] as the compound, how does the melting point read?
Its melting point is 168.1 to 170.1 °C.

Which melting point does the source give for `O=S(=O)(Cc1ccccc1)c1cccc2c1ccn2-c1ccnc(N[C@H]2CC[C@H](O)CC2)n1` [Example 14, trans-4-[4-(4-Phenylmethanesulfonylindol-1-yl)-pyrimidin-2-yl-amino]-cyclohexanol] here?
The melting point was 132.1 to 134.5 °C.

With `O=c1[nH]n(-c2ccnc(N[C@H]3CC[C@H](O)CC3)n2)c2ccccc12` [Example 16, trans-1-[2-(4-hydroxycyclohexylamino)-pyrimidin-4-yl]-1,2-dihydroindazol-3-one] as the compound, how does the melting point read?
Its melting point is 263.5 to 264.4 °C.

For `Cn1cc(-c2ccnc(N[C@H]3CC[C@H](O)CC3)n2)c2ccccc21` [Example 17, trans-4-[4-(1-Methyl-1H-indol-3-yl)-pyrimidin-2-ylamino]-cyclohexanol], which melting point is on record?
Its melting point is 194.5 to 195.3 °C.

With `CC(=O)Nc1ccc2cnn(-c3ccnc(N[C@H]4CC[C@H](O)CC4)n3)c2c1` [Example 19, trans-N-{1-[2-(4-Hydroxycyclohexylamino)-pyrimidin-4-yl]-1H-indazol-6-yl}-acetamide] as the compound, how does the melting point read?
The melting point was 288 to 289.5 °C.

With `OCc1ccc2cnn(-c3ccnc(N[C@H]4CC[C@H](O)CC4)n3)c2c1` [Example 20, trans-4-[4-(6-Hydroxymethylindazol-1-yl)-pyrimidin-2-ylamino]-cyclohexanol] as the compound, how does the melting point read?
Its melting point is 216 to 217.7 °C.

From patent US8399462B2, “JNK modulators” (Roche Palo Alto LLC, priority 2006, dated 2013)
